≈ marks a conversion by molar mass, not a printed value.
Experiments:
Experiment in all cases: ≥ marks a high value that may be exact or a test limit, other limits are often not marked, values filed in µg/mL are converted to µM
Acinetobacter baumannii = test system: Acinetobacter baumannii
[1] = test system: Staphylococcus aureus ATCC 25923
Staphylococcus aureus = test system: Staphylococcus aureus
[2] = test system: Escherichia coli ATCC 25922
[3] = test system: Staphylococcus epidermidis ATCC 1435
[4] = test system: Pseudomonas aeruginosa ATCC 10662
Bibersteinia trehalosi = test system: Bibersteinia trehalosi
Aspergillus fumigatus = test system: Aspergillus fumigatus
Klebsiella pneumoniae = test system: Klebsiella pneumoniae
[5] = test system: Salmonella enterica subsp. arizonae
[6] = test system: Mannheimia haemolytica Serovar 6
[7] = test system: Corynebacterium pseudotuberculosis ATCC 19410
[8] = test system: Pseudomonas aeruginosa PAO1
[9] = test system: Mannheimia haemolytica Serovar 2
Pasteurella multocida = test system: Pasteurella multocida
[10] = test system: Mannheimia haemolytica Serovar 1
[11] = test system: Staphylococcus aureus SA113
[12] = test system: Cronobacter muytjensii ATCC 51329
[13] = test system: Pseudomonas putida ATCC 49128
[14] = test system: Pseudomonas fluorescens NCIMB 9046
[15] = test system: Salmonella enterica subsp. enterica serovar Typhimurium DT104
Escherichia coli O157:H7 = test system: Escherichia coli O157:H7
[16] = test system: Escherichia coli NCIMB 11843
[17] = test system: Staphylococcus aureus RF122
[18] = test system: Staphylococcus aureus RN4220
[19] = test system: Klebsiella pneumoniae NCIMB 13218
[20] = test system: Staphylococcus aureus NCTC 7428
[21] = test system: Cronobacter sakazakii DSM 4485
[22] = test system: Cronobacter sakazakii ATCC BAA-894
[23] = test system: Salmonella enterica subsp. enterica serovar Typhimurium LT2
Escherichia coli O111 = test system: Escherichia coli O111
[24] = test system: Staphylococcus aureus NCTC 8325-4
[25] = test system: Staphylococcus aureus Newman
[26] = test system: Listeria monocytogenes NCTC 11994
[27] = test system: Cronobacter sakazakii DPC 6440
[28] = test system: Klebsiella pneumoniae ATCC 13883
[29] = test system: Pseudomonas aeruginosa H1001
[30] = test system: Escherichia coli KpC+001812446
Enterobacter cloacae = test system: Enterobacter cloacae
Escherichia coli BL21 = test system: Escherichia coli BL21
[31] = test system: Pseudomonas aeruginosa PA14
[32] = test system: Enterococcus faecalis ATCC 19433
[33] = test system: Klebsiella pneumoniae KpC+001825971
[34] = test system: Pseudomonas aeruginosa ATCC 27853
[35] = test system: Staphylococcus aureus ATCC 12600
[36] = test system: Acinetobacter baumannii ATCC 19606
[37] = test system: Cryptococcus neoformans var. grubii H99
[38] = test system: Staphylococcus aureus JE2
Escherichia coli K-12 = test system: Escherichia coli K-12
[39] = test system: Staphylococcus aureus ATCC 43300
[40] = test system: Klebsiella pneumoniae ATCC 700603
[41] = test system: Candida albicans ATCC 90028

In the case of CC[C@H](C)[C@H](NC(=O)CNC(=O)[C@H](CCCN=C(N)N)NC(=O)[C@H](Cc1ccccc1)NC(=O)[C@@H](NC(=O)[C@H](Cc1cnc[nH]1)NC(=O)[C@H](Cc1cnc[nH]1)NC(=O)[C@H](Cc1ccccc1)NC(=O)[C@@H](N)Cc1ccccc1)[C@@H](C)CC)C(=O)N[C@H](C(=O)N[C@@H](Cc1cnc[nH]1)C(=O)N[C@H](C(=O)NCC(=O)N[C@@H](CCCCN)C(=O)N[C@H](C(=O)N[C@@H](CCCCN)C(=O)N[C@@H](Cc1cnc[nH]1)C(=O)N[C@@H](CCCN=C(N)N)C(=O)N[C@@H](CC(C)C)C(=O)N[C@H](C(=O)N[C@H](C(=O)NCC(N)=O)[C@@H](C)O)C(C)C)[C@@H](C)O)C(C)C)C(C)C [FFHHIFRGIVHVGKTKHRLVTG], the MIC (Acinetobacter baumannii) is reported as 1.2 µM (≈ 3.1 µg/mL), the MIC [1] is reported as 2.4 µM (≈ 6.2 µg/mL) and the MIC (Staphylococcus aureus) is reported as 2.4 µM (≈ 6.2 µg/mL). The MIC [2] was 1.2 µM (≈ 3.1 µg/mL), the MIC [3] was 1.2 µM (≈ 3.1 µg/mL) and the MIC [4] was 9.66 µM (≈ 25 µg/mL).

With CC[C@H](C)[C@H](NC(=O)[C@H](Cc1cnc[nH]1)NC(=O)[C@@H](NC(=O)[C@@H](NC(=O)[C@H](CCCCN)NC(=O)[C@H](CCCN=C(N)N)NC(=O)[C@@H](NC(=O)[C@@H](NC(=O)[C@H](CCCN=C(N)N)NC(=O)[C@H](CCCN=C(N)N)NC(=O)[C@@H](N)CC(C)C)[C@@H](C)CC)[C@@H](C)CC)[C@@H](C)CC)[C@@H](C)CC)C(=O)N[C@H](C(=O)N[C@@H](CCCCN)C(=O)N[C@@H](CCCCN)C(=O)O)[C@@H](C)CC [LRRIIRKIIHIIKK] the MIC (Staphylococcus aureus) was > 11.1 µM, the MIC (Bibersteinia trehalosi) was 11.1 µM (≈ 20 µg/mL) and the MIC (Aspergillus fumigatus) was 18.5 µM (≈ 33.3 µg/mL). The MIC (Klebsiella pneumoniae) was > 11.1 µM, the MIC [5] was 11.1 µM (≈ 20 µg/mL) and the MIC [6] was 9.28 µM (≈ 16.7 µg/mL). It also gave an MIC [7] of 11.1 µM (≈ 20 µg/mL), an MIC [8] of 1.83 µM (≈ 3.3 µg/mL) and an MIC [9] of 3.72 µM (≈ 6.7 µg/mL). It also gave an MIC (Pasteurella multocida) of 5.55 µM (≈ 10 µg/mL) and an MIC [10] of 2.78 µM (≈ 5 µg/mL).

With CC[C@H](C)[C@H](N)C(=O)N[C@@H](CCCCN)C(=O)N[C@@H](Cc1cnc[nH]1)C(=O)N[C@@H](CCC(N)=O)C(=O)NCC(=O)N[C@@H](CC(C)C)C(=O)N1CCC[C@H]1C(=O)N[C@@H](CCC(N)=O)C(=O)N[C@@H](CCC(=O)O)C(=O)O [IKHQGLPQE] the MIC [11] was ≥ 1250 µM, the MIC [12] was ≥ 625 µM and the MIC [13] was ≥ 953 µM. The MIC [14] was ≥ 1250 µM, the MIC [15] was ≥ 1910 µM and the MIC (Escherichia coli O157:H7) was ≥ 1910 µM. The MIC [16] was ≥ 1250 µM, the MIC [17] was ≥ 1250 µM and the MIC [18] was ≥ 1250 µM. The MIC [19] was ≥ 1250 µM, the MIC [20] was ≥ 1910 µM and the MIC [21] was ≥ 625 µM. The MIC [22] was ≥ 625 µM, the MIC [23] was ≥ 1250 µM and the MIC (Escherichia coli O111) was ≥ 1910 µM. The MIC [24] was ≥ 1250 µM, the MIC [25] was ≥ 1250 µM and the MIC [26] was ≥ 953 µM. The MIC [27] was ≥ 625 µM.

CC[C@H](C)[C@H](NC(=O)[C@H](CCCCN)NC(=O)[C@H](CC(C)C)NC(=O)[C@H](CCCN=C(N)N)NC(=O)[C@H](CC(C)C)NC(=O)[C@H](CCCCN)NC(=O)[C@@H](N)CCCCN)C(=O)N[C@@H](C)C(=O)N[C@@H](Cc1ccccc1)C(=O)N[C@@H](CCCCN)C(=O)O [KKLRLKIAFK] was tested, and the MIC [28] was ≥ 32 µM, the MIC (Acinetobacter baumannii) was ≥ 32 µM and the MIC [1] was > 32 µM. The MIC (Staphylococcus aureus) was > 32 µM, the MIC [29] was 20 µM (≈ 24.9 µg/mL) and the MIC [2] was 16 µM (≈ 19.9 µg/mL). For the same compound, the MIC [30] was 22.6 µM (≈ 28.2 µg/mL), the MIC (Enterobacter cloacae) was ≥ 32 µM and the MIC (Escherichia coli BL21) was 4 µM (≈ 4.98 µg/mL). For the same compound, the MIC [31] was ≥ 32 µM, the MIC [32] was 5.66 µM (≈ 7.04 µg/mL) and the MIC [33] was ≥ 32 µM. For the same compound, the MIC [34] was > 32 µM, the MIC [35] was ≥ 32 µM and the MIC [8] was 32 µM (≈ 39.8 µg/mL).

For CC[C@H](C)[C@H](NC(=O)[C@@H](NC(=O)[C@H](CO)NC(=O)[C@H](C)NC(=O)[C@@H](NC(=O)[C@H](CCCCN)NC(=O)[C@H](CCCN=C(N)N)NC(=O)[C@@H](NC(=O)[C@@H](NC(=O)[C@H](CC(=O)O)NC(=O)[C@H](Cc1ccccc1)NC(=O)[C@H](CC(C)C)NC(=O)CN)C(C)C)[C@@H](C)CC)C(C)C)C(C)C)C(=O)NCC(=O)NCC(=O)N[C@@H](CC(C)C)C(=O)O [GLFDVIRKVASVIGGL], the MIC [36] was 19.5 µM (≈ 32 µg/mL), the MIC [37] was 9.73 µM (≈ 16 µg/mL) and the MIC [38] was 9.73 µM (≈ 16 µg/mL). For the same compound, the MIC [2] was > 19.5 µM, the MIC (Escherichia coli K-12) was 19.5 µM (≈ 32 µg/mL) and the MIC [39] was 9.73 µM (≈ 16 µg/mL). The MIC [40] was > 19.5 µM, the MIC [34] was > 19.5 µM and the MIC [41] was 19.5 µM (≈ 32 µg/mL).
